The text below walks through data of patent US20090093469A1, “Phenylaminopropanol Derivatives and Methods of Their Use” (WYETH, priority 2004, published 2009).

The assay concerns the target T1, hNET (Homo sapiens, UniProt P23975).
T1 construct: expressed in transfected cells
Description: Norepinephrine (NE) uptake assay in MDCK-Net6 cells stably transfected with human hNET. The format is cell-based. The protocol:
Cells were plated at 300,000/T75 flask and cells were split twice weekly. […] Cells were plated at 250,000 cells/T75 flask and split twice weekly.
On day 1, cells were plated at 3,000 cells/well in growth medium and maintained in a cell incubator (37° C., 5% CO2). On day 2, growth medium was replaced with 200 μl of assay buffer (25 mM HEPES; 120 mM NaCl; 5 mM KCl; 2.5 mM CaCl2; 1.2 mM MgSO4; 2 mg/ml glucose (pH 7.4, 37° C.)) containing 0.2 mg/ml ascorbic acid and 10 μM pargyline. Plates containing cells with 200 μl of assay buffer were equilibrated for 10 minutes at 37° C. prior to addition of compounds. A stock solution of desipramine was prepared in DMSO (10 mM) and delivered to triplicate wells containing cells for a final test concentration of 1 μM. Data from these wells were used to define non-specific NE uptake (minimum NE uptake). Test compounds were prepared in DMSO (10 mM) and diluted in assay buffer according to test range (1 to 10,000 nM). Twenty-five microliters of assay buffer (maximum NE uptake) or test compound were added directly to triplicate wells containing cells in 200 μl of assay buffer. The cells in assay buffer with test compounds were incubated for 20 minutes at 37° C. To initiate the NE uptake, [^3H]NE diluted in assay buffer (120 nM final assay concentration) was delivered in 25 μl aliquots to each well and the plates were incubated for 5 minutes (37° C.). The reaction was terminated by decanting the supernatant from the plate. The plates containing cells were washed twice with 200 μl assay buffer (37° C.) to remove free radioligand. The plates were then inverted, left to dry for 2 minutes, then reinverted and air-dried for an additional 10 minutes. The cells were lysed in 25 μl of 0.25 N NaOH solution (4° C.), placed on a shake table and vigorously shaken for 5 minutes. After cell lysis, 75 μl of scintillation cocktail was added to each well and the plates were sealed with film tape. The plates were returned to the shake table and vigorously shaken for a minimum of 10 minutes to ensure adequate partitioning of organic and aqueous solutions. The plates were counted in a Wallac Microbeta counter (PerkinElmer) to collect the raw cpm data.
For each experiment, a data stream of cpm values collected from the Wallac Microbeta counter was downloaded to a Microsoft Excel statistical application program. Calculations of EC50 values were made using the transformed-both-sides logistic dose response program written by Wyeth Biometrics Department.

Where [1] appears, read: test compound 1 μM, [3H]NE uptake, MDCK-Net6 cells, read-out: % Inhibition @ 1 μM (hNET).
[2] abbreviates: MDCK-Net6, read-out: % Inhibition @ 1 μM (hNET).

Molecules are shown by their SMILES. Structures can show the parent of a compound that is named as a salt. Where two headings read alike, the source gives them in different places.

T1 sequence (P23975 whole entry): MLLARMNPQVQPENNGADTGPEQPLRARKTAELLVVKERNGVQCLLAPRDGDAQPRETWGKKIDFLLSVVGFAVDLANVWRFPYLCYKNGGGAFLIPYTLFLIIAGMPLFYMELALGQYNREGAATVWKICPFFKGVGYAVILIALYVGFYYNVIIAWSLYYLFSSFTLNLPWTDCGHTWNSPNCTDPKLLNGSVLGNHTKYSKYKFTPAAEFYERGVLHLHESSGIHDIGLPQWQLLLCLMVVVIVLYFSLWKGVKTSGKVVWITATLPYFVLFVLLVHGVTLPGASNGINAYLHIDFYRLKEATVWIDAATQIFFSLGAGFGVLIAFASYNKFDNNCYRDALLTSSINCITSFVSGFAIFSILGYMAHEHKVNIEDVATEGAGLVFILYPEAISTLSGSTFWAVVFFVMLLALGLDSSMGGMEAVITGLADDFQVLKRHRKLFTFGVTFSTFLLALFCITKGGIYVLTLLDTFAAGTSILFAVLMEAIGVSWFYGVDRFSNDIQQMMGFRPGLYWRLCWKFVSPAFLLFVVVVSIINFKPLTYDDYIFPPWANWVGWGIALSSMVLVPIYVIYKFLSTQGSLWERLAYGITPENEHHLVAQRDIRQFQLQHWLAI

As usually defined, the inhibition is how much of the control response was suppressed. As for `CC(C)NC[C@H](O)[C@@H](c1ccccc1)n1ccc2ccccc21` (racemic) [Example 6, (1RS,2SR)-1-(1H-indol-1-yl)-3-(isopropylamino)-1-phenylpropan-2-ol hydrochloride], under setting [1], the inhibition at 1 µM worked out at 13.1%.
Take `CNC[C@@H](O)[C@H](c1cccc(F)c1)n1ccc2cc(Br)ccc21` [Example 127, (1S,2R)-1-(5-bromo-1H-indol-1-yl)-1-(3-fluorophenyl)-3-(methylamino)propan-2-ol hydrochloride]: the inhibition at 1 µM under setting [2] amounted to 95.7%.
With `CNC[C@@H](O)[C@H](c1ccccc1)n1c(C)cc2ccccc21` (racemic) [Example 71, (1RS,2SR)-3-(methylamino)-1-(2-methyl-1H-indol-1-yl)-1-phenylpropan-2-ol hydrochloride], under setting [1], the inhibition at 1 µM was 44.9%.
Turning to `CNC[C@@H](O)[C@H](c1ccccc1)n1ccc2c(Cl)cccc21` [Example 146, (1S,2R)-1-(4-chloro-1H-indol-1-yl)-3-(methylamino)-1-phenylpropan-2-ol hydrochloride], the inhibition at 1 µM under setting [1] amounted to 97.1%.
For the compound `OC(CNC1CC1)C(c1cccc(F)c1)n1ccc2ccccc21` (stereo in doubt) [Example 111, (1S,2R)-3-(cyclopropylamino)-1-(3-fluorophenyl)-1-(1H-indol-1-yl)propan-2-ol hydrochloride], the inhibition at 1 µM under setting [1] was found to be 42.7%.
On the same count and under the same terms, the value for `O[C@@H]([C@@H]1CCCN1)[C@@H](c1cccc(F)c1)n1ccc2ccccc21` [Example 105, (1S,2R)-2-(3-fluorophenyl)-2-(1H-indol-1-yl)-1-[(2S)-pyrrolidin-2-yl]ethanol hydrochloride] was 92.6%.
Regarding `CNC[C@@](C)(O)[C@H](c1ccccc1)n1ccc2ccccc21` [Example 190, (1S,2R)-1-(1H-indol-1-yl)-2-methyl-3-(methylamino)-1-phenylpropan-2-ol hydrochloride], the inhibition at 1 µM under setting [1] worked out at 53.7%.
`CNC[C@@H](O)[C@H](c1ccccc1)n1ccc2c(OC)cccc21` (racemic) [Example 74, (1RS,2SR)-1-(4-methoxy-1H-indol-1-yl)-3-(methylamino)-1-phenyl propan-2-ol hydrochloride]: the inhibition at 1 µM under setting [1] turned out to be 67%.
Take `CNC[C@@H](OC)[C@H](c1ccccc1)n1cc(C)c2cc(Cl)ccc21` [Example 121, [(2R,3S)-3-(5-chloro-3-methyl-1H-indol-1-yl)-2-methoxy-3-phenylpropyl]methylamine]: under setting [1], the inhibition at 1 µM worked out at 21.2%.
As for `CNC[C@@H](O)[C@H](c1ccccc1)n1ccc2cccc(F)c21` [Example 181, (1S,2R)-1-(7-fluoro-1H-indol-1-yl)-3-(methylamino)-1-phenylpropan-2-ol hydrochloride], the inhibition at 1 µM under setting [1] is 96.9%.
On the same count and under the same terms, the value for `CNC[C@@H](O)[C@H](c1cccc(F)c1)n1cc(-c2ccc(Cl)c(Cl)c2)c2ccccc21` [Example 115, (1S,2R)-1-[3-(3,4-dichlorophenyl)-1H-indol-1-yl]-1-(3-fluorophenyl)-3-(methylamino)propan-2-ol hydrochloride] was 23.9%; that for `CNC[C@@H](O)[C@H](c1ccccc1)n1ccc2c(C#N)cccc21` [Example 128, 1-[(1S,2R)-2-hydroxy-3-(methylamino)-1-phenylpropyl]-1H-indole-4-carbonitrile hydrochloride] was 45.6%.
Take `CNC[C@@H](O)[C@H](c1ccccc1C)n1ccc2ccccc21` (single isomer, unassigned) [Example 53, hydrochloride]: under setting [2], the inhibition at 1 µM was 57.4%.
Same read-out and setting: the figure for `CNC[C@@H](O)[C@H](c1cccc(F)c1)n1ccc2ccc(Br)cc21` [Example 132, (1S,2R)-1-(6-bromo-1H-indol-1-yl)-1-(3-fluorophenyl)-3-(methylamino)propan-2-ol hydrochloride] is 93%.
Take `CNC[C@@H](O)[C@H](c1ccccc1)n1ccc2cc(Br)ccc21` [Example 126, (1S,2R)-1-(5-bromo-1H-indol-1-yl)-3-(methylamino)-1-phenylpropan-2-ol hydrochloride]: the inhibition at 1 µM under setting [1] amounted to 92.9%.
On the same count and under the same terms, the value for `CNC[C@@H](O)[C@H](c1ccccc1)n1cc(C)c2cc(Cl)ccc21` [Example 119, (1S,2R)-1-(5-chloro-3-methyl-1H-indol-1-yl)-3-(methylamino)-1-phenylpropan-2-ol hydrochloride] was 96.3%.
As to `CNC[C@@H](O)[C@H](c1ccccc1)n1ccc2ccc(Cl)cc21` [Example 147, (1S,2R)-1-(6-chloro-1H-indol-1-yl)-3-(methylamino)-1-phenylpropan-2-ol hydrochloride], the inhibition at 1 µM under setting [1] is 91.7%.
As to `CNC[C@@H](O)[C@H](c1ccc(C)cc1)n1ccc2ccccc21` [Example 59, (1S,2R)-1-(1H-indol-1-yl)-3-(methylamino)-1-(4-methylphenyl)propan-2-ol hydrochloride], the inhibition at 1 µM under setting [2] came out at 93.2%.
Regarding `CNC[C@@H](O)[C@H](c1cccc(C)c1)n1ccc2ccccc21` [Example 52, (1S,2R)-1-(1H-indol-1-yl)-3-(methylamino)-1-(3-methylphenyl)propan-2-ol hydrochloride], under setting [2], the inhibition at 1 µM is 94.3%.
Take `CCn1c(=O)n([C@@H](c2cccc(F)c2)[C@H](O)CNC)c2c(F)cccc21` [Example 209, 1-Ethyl-4-fluoro-3-[(1S,2R)-2-hydroxy-3-(methylamino)-1-(3-fluorophenyl)-propyl]-1,3-dihydro-2H-benzimidazol-2-one hydrochloride]: the inhibition at 1 µM under setting [2] came to 99.3%.
As for `NC[C@@H](O)[C@H](c1cccc(F)c1)n1ccc2ccccc21` [Example 134, (1S,2R)-3-amino-1-(3-fluorophenyl)-1-(1H-indol-1-yl)propan-2-ol hydrochloride], the inhibition at 1 µM under setting [1] was 68.5%.
For the compound `CCn1c(=O)n([C@@H](c2cccc(F)c2)[C@H](O)CNC)c2ccccc21` [Example 199, 1-Ethyl-3-[1-(3-fluoro-phenyl)-2-hydroxy-3-methylamino-propyl]-1,3-dihydro-benzimidazol-2-one hydrochloride], under setting [2], the inhibition at 1 µM amounted to 99.1%.
For `CN1CCN(C[C@H](O)[C@@H](c2ccccc2)n2ccc3cc(F)ccc32)CC1` (racemic) [Example 2, (1RS,2SR)-1-(5-fluoro-1H-indol-1-yl)-3-(4-methylpiperazin-1-yl)-1-phenylpropan-2-ol dihydrochloride], the inhibition at 10 µM (test compound 10 μM (stated in cell), [3H]NE uptake, MDCK-Net6 cells) was determined as 66.5%.
Regarding `CNC[C@@H](O)[C@H](c1cccc(F)c1)n1ccc2ccc(OC)cc21` [Example 81, (1S,2R)-1-(3-fluorophenyl)-1-(6-methoxy-1H-indol-1-yl)-3-(methyl-amino)propan-2-ol hydrochloride], the inhibition at 1 µM under setting [1] worked out at 58%.
For `CNC[C@@H](O)[C@H](c1ccc(OC)cc1)n1ccc2ccccc21` (racemic) [Example 70, (1SR,2RS)-1-(1H-indol-1-yl)-1-(4-methoxyphenyl)-3-(methylamino)propan-2-ol hydrochloride], the inhibition at 1 µM under setting [1] was 77.7%.
As for `CNC[C@@H](O)[C@H](c1cc(F)cc(F)c1)n1ccc2ccccc21` [Example 157, (1S,2R)-1-(3,5-difluorophenyl)-1-(1H-indol-1-yl)-3-(methylamino)propan-2-ol hydrochloride], under setting [1], the inhibition at 1 µM came out at 99.6%.
With `CNC[C@@H](O)[C@H](c1cccc(F)c1)n1ccc2ccc(Cl)cc21` [Example 151, (1S,2R)-1-(6-chloro-1H-indol-1-yl)-1-(3-fluorophenyl)-3-(methylamino)propan-2-ol hydrochloride], the inhibition at 1 µM under setting [2] worked out at 94.3%.
As for `CNC[C@@H](O)[C@H](c1ccccc1)n1ccc2cc(OC)ccc21` [Example 76, (1S,2R)-1-(5-methoxy-1H-indol-1-yl)-3-(methylamino)-1-phenylpropan-2-ol hydrochloride], the inhibition at 1 µM under setting [2] is 75.2%.
With `CNC[C@@H](O)[C@H](c1ccccc1)n1c(=O)n(C(C)(C)C)c2ccccc21` [Example 192, 1-tert-Butyl-3-(2-hydroxy-3-methylamino-1-phenyl-propyl)-1,3-dihydro-benzoimidazol-2-one hydrochloride], under setting [2], the inhibition at 1 µM came to 54.6%.
Regarding `CNC[C@@H](O)[C@H](c1cccc(F)c1)n1cc(C(C)C)c2ccccc21` [Example 155, (1S,2R)-1-(3-fluorophenyl)-1-(3-isopropyl-1H-indol-1-yl)-3-(methylamino)propan-2-ol hydrochloride], the inhibition at 1 µM under setting [1] was 98.9%.
